According to BindingDB's records for doi:10.1016/j.bioorg.2016.03.011 (Beni-Suef University, 2016):

Target: Epidermal growth factor receptor (Homo sapiens, UniProt P00533)
Experiment: Kinase-Glo Plus Luminescence Kinase Assay
Protocol: Kinase activity was determined using Kinase-Glo Plus luminescence kinase assay kit according to the manufacturer instructions. The assays depend on the quantitation of the amount of ATP remaining in the solution of kinase reaction.

Epidermal growth factor receptor, sequence (P00533 whole entry): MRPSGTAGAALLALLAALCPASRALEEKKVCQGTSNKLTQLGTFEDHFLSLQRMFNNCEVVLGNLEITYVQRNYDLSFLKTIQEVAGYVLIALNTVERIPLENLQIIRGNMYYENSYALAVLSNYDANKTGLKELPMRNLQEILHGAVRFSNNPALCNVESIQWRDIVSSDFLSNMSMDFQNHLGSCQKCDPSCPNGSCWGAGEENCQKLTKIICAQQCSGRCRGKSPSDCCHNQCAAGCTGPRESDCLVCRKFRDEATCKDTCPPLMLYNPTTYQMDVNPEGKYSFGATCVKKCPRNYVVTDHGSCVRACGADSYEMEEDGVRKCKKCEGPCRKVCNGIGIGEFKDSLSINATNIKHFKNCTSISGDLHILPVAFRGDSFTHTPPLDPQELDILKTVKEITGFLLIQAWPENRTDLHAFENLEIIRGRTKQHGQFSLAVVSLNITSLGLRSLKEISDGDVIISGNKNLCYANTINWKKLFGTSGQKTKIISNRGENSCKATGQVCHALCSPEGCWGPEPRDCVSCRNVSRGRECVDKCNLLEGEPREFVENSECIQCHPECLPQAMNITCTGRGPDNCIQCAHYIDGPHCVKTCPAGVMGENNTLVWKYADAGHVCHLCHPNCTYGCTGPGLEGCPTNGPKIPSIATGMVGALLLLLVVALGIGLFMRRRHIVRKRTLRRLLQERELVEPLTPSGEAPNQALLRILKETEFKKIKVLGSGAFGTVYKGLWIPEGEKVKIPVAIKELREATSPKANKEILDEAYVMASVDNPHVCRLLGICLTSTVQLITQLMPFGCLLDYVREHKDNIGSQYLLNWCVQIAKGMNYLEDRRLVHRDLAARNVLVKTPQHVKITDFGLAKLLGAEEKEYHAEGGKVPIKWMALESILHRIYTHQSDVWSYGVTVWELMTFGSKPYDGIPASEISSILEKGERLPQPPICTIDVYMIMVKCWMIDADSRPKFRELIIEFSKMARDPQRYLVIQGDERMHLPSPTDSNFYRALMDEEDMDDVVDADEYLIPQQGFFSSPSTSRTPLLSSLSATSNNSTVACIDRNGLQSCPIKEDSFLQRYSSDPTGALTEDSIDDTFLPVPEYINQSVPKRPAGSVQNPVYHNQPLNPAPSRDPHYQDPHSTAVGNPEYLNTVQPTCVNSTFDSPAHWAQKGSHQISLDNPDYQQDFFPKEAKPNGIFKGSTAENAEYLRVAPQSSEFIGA

IC50	Structure (SMILES)
30 µM	Cc1cc(OCC(=O)N/N=C/c2ccc(F)cc2)c2c(C)nn(-c3ccccc3)c2n1 [N-(4-fluorobenzylidene)-2-(3,6-dimethyl-1-phenyl-1H-pyrazolo[3,4-d]pyrimidin-4-yloxy)acetohydrazide (12b)]
35.9 µM	Cc1cc(OCC(=O)N/N=C/c2ccc(C(F)(F)F)cc2)c2c(C)nn(-c3ccccc3)c2n1 [N-(4-Trifluoromethylbenzylidene)-2-(3,6-dimethyl-1-phenyl-1H-pyrazolo[3,4-d]pyrimidin-4-yloxy)acetohydrazide (12f)]
